Assay results published in patent publication US20210338749A1, “METHODS OF TREATMENT OF INFLAMMATORY CONDITIONS AND ASSOCIATED INFECTIONS” (Servatus Ltd., priority 2018, published 2021).

Experiments:
[1] = tested on: DSS-induced ulcerative colitis; settings: chronic 2% DSS murine model, previous data obtained by CRL; cited from earlier work
[2] = tested on: Pseudomonas aeruginosa (ATCC 27853); test: Agar well diffusion assay; type: cell-based; settings: P. aeruginosa, includes well diameter of 9 mm
Method: (§1) Inhibition of pathogen growth was determined using an agar well diffusion assay. Cultures of the five test Lactobacillus species were grown in MRS broth for 24 hours at 37° C. Each pathogen was sub-cultured onto nutrient agar plates or 5% CBA plates and incubated under the appropriate conditions (as described above) prior to resuspension in DPBS to give a McFarland standard of 0.5 (equivalent to 10^8 CFU/mL). Each 0.5 McFarland standardised culture was spread, using a swab, onto nutrient agar plates or CBA plates and allowed to soak in prior to making 9 mm wells. 100 μL of each test Lactobacillus, was then added to individual wells and the plates were incubated for 24 hours at 37° C. […] Following incubation, zones of inhibition or zones of growth reduction (hazing of growth) were measured (mm) and recorded. Two readings were taken for each zone and three replicates were used.
(§2) The ability of L. diolivorans, L. paracasei, L. parafarraginis, L. rapi and L. zeae deposited pursuant to the Budapest Treaty as described hereinbefore were then tested for their ability to inhibit the growth of pathogenic bacteria Staphylococcus aureus (ATCC 29213 and ATCC 25923), Staphylococcus epidermidis (clinical isolate), Pseudomonas aeruginosa (ATCC 27853) and Escherichia coli K12. These pathogens were grown under aerobic conditions at 37° C. in nutrient agar. Inhibition of growth was determined using an agar well diffusion assay as described above. In addition, cell free supernatants derived from culture of the Lactobacillus species were also tested. Briefly, after 24 hours growth, cultures of Lactobacillus were centrifuged at 10,000×g and the supernatant filter sterilised through a 0.2 μm membrane. 100 μl of cell free supernatant was added to the wells containing pathogen.

[3] = tested on: Staphylococcus aureus (ATCC 25923); test: Agar well diffusion assay; type: cell-based; settings: S. aureus (ATCC 25923), includes well diameter of 9 mm
Method: as §1, §2

[4] = tested on: Staphylococcus aureus (ATCC 29213); test: Agar well diffusion assay; type: cell-based; settings: S. aureus (ATCC 29213), includes well diameter of 9 mm
Method: as §1, §2

Escherichia coli K12 = test: Agar well diffusion assay; type: cell-based; settings: E. coli, includes well diameter of 9 mm
Method: as §1, §2

[5] = tested on: Streptococcus mutans (ATCC 25175); test: Agar well diffusion assay; type: cell-based; settings: S. mutans; 100 μL culture per 9 mm well, 24 hours; ciprofloxacin 5 μg
Method: (§3) The ability of the Lactobacillus species L. diolivorans, L. paracasei, L. parafarraginis, L. rapi and L. zeae deposited pursuant to the Budapest Treaty as described hereinbefore were tested for their ability to inhibit the growth of bacterial pathogens associated with inflammation and various inflammatory conditions. Pathogens tested for this purpose were Campylobacter jejuni (ATCC 33291), Helicobacter pylori (ATCC 700824), Clostridium difficile (ATCC 9689), Salmonella typhimurium (ATCC 29630), Yersinia enterocolitica (ATCC 23715), Citrobacter sp (ATCC 51378), Streptococcus pyogenes (ATCC 19615), Streptococcus mutans (ATCC 25175), Klebsiella oxytoca (ATCC 700324), and Proteus mirabilis (ATCC 25933). C. jejuni and H. pylori were grown under microaerobic conditions at 37° C. in 5% Columbia horse blood agar (CBA). S. typhimurium, Y. enterocolitica, Citrobacter sp., K. oxytoca and P. mirabilis were grown under aerobic conditions at 37° C. in nutrient agar. S. pyogenes and S. mutans were grown under aerobic conditions with 5% CO2 at 37° C. in 5% CBA. C. difficile was grown under anaerobic conditions at 37° C. in 5% CBA.
as §1

[6] = tested on: Klebsiella oxytoca (ATCC 700324); test: Agar well diffusion assay; type: cell-based; settings: K. oxytoca; 100 μL culture per 9 mm well, 24 hours; ciprofloxacin 5 μg
Method: as §3, §1

[7] = tested on: Proteus mirabilis (ATCC 25933); test: Agar well diffusion assay; type: cell-based; settings: P. mirabilis; 100 μL culture per 9 mm well, 24 hours; ciprofloxacin 5 μg
Method: as §3, §1

[8] = tested on: Streptococcus pyogenes (ATCC 19615); test: Agar well diffusion assay; type: cell-based; settings: S. pyogenes; 100 μL culture per 9 mm well, 24 hours; ciprofloxacin 5 μg
Method: as §3, §1

[9] = tested on: Citrobacter sp (ATCC 51378); test: Agar well diffusion assay; type: cell-based; settings: 100 μL culture per 9 mm well, 24 hours, ciprofloxacin 5 μg
Method: as §3, §1

[10] = tested on: Salmonella typhimurium (ATCC 29630); test: Agar well diffusion assay; type: cell-based; settings: S. typhimurium; 100 μL culture per 9 mm well, 24 hours; ciprofloxacin 5 μg
Method: as §3, §1

[11] = tested on: Campylobacter jejuni (ATCC 33291); test: Agar well diffusion assay; type: cell-based; settings: C. jejuni; 100 μL culture per 9 mm well, 24 hours; ciprofloxacin 5 μg
Method: as §3, §1

[12] = tested on: Helicobacter pylori (ATCC 700824); test: Agar well diffusion assay; type: cell-based; settings: H. pylori; 100 μL culture per 9 mm well, 24 hours; ciprofloxacin 5 μg
Method: as §3, §1

[13] = tested on: Yersinia enterocolitica (ATCC 23715); test: Agar well diffusion assay; type: cell-based; settings: Y. enterocolitica; 100 μL culture per 9 mm well, 24 hours; ciprofloxacin 5 μg
Method: as §3, §1

[14] = cell free supernatants derived from Lactobacilli cultures

C[C@]12C=CC(=O)C=C1CC[C@@H]1[C@@H]2[C@@H](O)C[C@@]2(C)[C@H]1CC[C@]2(O)C(=O)CO [Prednisolone]
Therapeutic efficacy (DAI score) [1]: failed to demonstrate therapeutic efficacy

Nc1nc2nc[nH]c2c(=S)[nH]1 [6-Thioguanine]
Therapeutic efficacy (DAI score) [1]: failed to demonstrate therapeutic efficacy

O=C(O)c1cc(/N=N/c2ccc(S(=O)(=O)Nc3ccccn3)cc2)ccc1O [Sulfasalazine]
Therapeutic efficacy (DAI score) [1]: failed to demonstrate therapeutic efficacy

O=C(O)c1cn(C2CC2)c2cc(N3CCNCC3)c(F)cc2c1=O [Ciprofloxacin, ciprofloxacin]
Zones of inhibition/zones of growth reduction [2, 14]: 39.2 mm
Zones of inhibition/zones of growth reduction ([2]; live cultures of Lactobacilli): 39.2 mm
Zones of inhibition/zones of growth reduction [3, 14]: 33.7 mm
Zones of inhibition/zones of growth reduction ([3]; live cultures of Lactobacilli): 33.7 mm
Zones of inhibition/zones of growth reduction [4, 14]: 33.7 mm
Zones of inhibition/zones of growth reduction ([4]; live cultures of Lactobacilli): 33.7 mm
Zones of inhibition/zones of growth reduction (Escherichia coli K12; [14]): 40.0 mm
Zones of inhibition/zones of growth reduction (Escherichia coli K12; live cultures of Lactobacilli): 40.0 mm
Zones of inhibition/zones of growth reduction [5]: 28.5 mm
Zones of inhibition/zones of growth reduction [6]: 41.2 mm
Zones of inhibition/zones of growth reduction [7]: 44.2 mm
Zones of inhibition/zones of growth reduction [8]: 30.2 mm
Zones of inhibition/zones of growth reduction [9]: 47.0 mm
Zones of inhibition/zones of growth reduction [10]: 49 mm
Zones of inhibition/zones of growth reduction [11]: 30.2 mm
Zones of inhibition/zones of growth reduction [12]: 31.7 mm
Zones of inhibition/zones of growth reduction [13]: 44.2 mm

Nc1ccc(O)c(C(=O)O)c1 [5-Aminosalicylic acid]
Therapeutic efficacy (DAI score) [1]: failed to demonstrate therapeutic efficacy
